Laboratory results taken from article PMC4151019 (Clinical Pharmacology and Therapeutics, 2014).
pKi: −log10 of the molar value. Several values for one entry are separate records, joined by “and”; a condition that tells them apart may be missing. Equal entries are not always repeated. Where two headings read alike, the source gives them in different places.

Columns and labels:
CYP2B6 = CYP2B6 phenotyping with bupropion; conditions: rifampicin-mediated induction; matrix not stated
[1] = format: in vivo, human
CYP2D6 = conditions: read-out: inhibition constant (Ki); cited from earlier work
[2] = Comparison of probe Cmax and AUC in DBS and plasma; format: in vivo, human; conditions: for blood plasma ratio: human, capillary whole blood (DBS) versus venous plasma, oral
[3] = after a single 75-mg bupropion dose; cited from earlier work
CYP1A2 = biological target: T1, CYP1A2 (Homo sapiens, UniProt P05177); test: CYP1A2 phenotyping with caffeine; conditions: par/caf AUClast ratio in DBS
T1 sequence (P05177 1-516): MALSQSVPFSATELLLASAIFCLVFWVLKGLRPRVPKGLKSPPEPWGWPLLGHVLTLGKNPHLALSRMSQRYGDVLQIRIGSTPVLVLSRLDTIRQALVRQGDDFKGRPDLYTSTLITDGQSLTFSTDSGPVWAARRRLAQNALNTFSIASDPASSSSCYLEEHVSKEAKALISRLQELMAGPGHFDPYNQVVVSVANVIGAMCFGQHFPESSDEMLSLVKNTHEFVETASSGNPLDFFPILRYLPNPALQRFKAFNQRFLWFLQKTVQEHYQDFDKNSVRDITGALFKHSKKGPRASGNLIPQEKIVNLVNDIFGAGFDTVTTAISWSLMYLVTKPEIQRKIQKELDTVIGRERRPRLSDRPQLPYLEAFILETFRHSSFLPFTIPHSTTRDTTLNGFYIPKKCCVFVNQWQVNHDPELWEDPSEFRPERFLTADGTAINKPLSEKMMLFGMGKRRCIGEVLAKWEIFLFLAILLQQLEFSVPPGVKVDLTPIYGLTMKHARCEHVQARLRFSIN

[4] = Side effects reported by volunteers; conditions: 10 healthy volunteers
CYP2C19 = CYP2C19 (Homo sapiens, UniProt P33261); conditions: previous studies; cited from earlier work
CYP2C19, sequence (P33261 whole entry): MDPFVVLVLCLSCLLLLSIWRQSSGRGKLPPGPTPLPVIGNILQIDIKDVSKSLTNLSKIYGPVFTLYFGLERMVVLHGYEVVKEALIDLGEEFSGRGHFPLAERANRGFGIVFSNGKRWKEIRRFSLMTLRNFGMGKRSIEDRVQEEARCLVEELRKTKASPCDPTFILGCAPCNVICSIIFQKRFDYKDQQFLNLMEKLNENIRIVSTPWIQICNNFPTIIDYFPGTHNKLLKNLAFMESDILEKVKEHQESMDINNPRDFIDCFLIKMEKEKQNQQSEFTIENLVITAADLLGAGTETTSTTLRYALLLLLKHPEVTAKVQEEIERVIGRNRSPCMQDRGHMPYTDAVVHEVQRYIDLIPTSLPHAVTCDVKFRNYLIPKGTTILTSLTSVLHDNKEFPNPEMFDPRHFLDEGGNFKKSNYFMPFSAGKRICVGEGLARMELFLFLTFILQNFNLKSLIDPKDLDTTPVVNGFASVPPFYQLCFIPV

CYP3A = CYP3A phenotyping with midazolam; conditions: voriconazole 400 mg 2 h before cocktail
[5] = after a 75-mg single dose, from free plasma fraction and liver/plasma ratio
[6] = after a single 25-mg dose, approximately 3 times less than 75 mg

CC(NC(C)(C)C)C(=O)c1cccc(Cl)c1 (centres unmarked) [Bupropion, bupropion]
decrease in bupropion AUC (CYP2B6): approximately threefold | maximal estimated liver concentrations [1, 5]: 0.73 µmol/L | maximal estimated liver concentrations [1, 6]: 0.24 µmol/L | pKi (CYP2D6): 4.68

COc1ccc2c(c1)[C@]13CCCC[C@@H]1[C@H](C2)N(C)CC3 [Dextromethorphan, dextromethorphan]
Cmax and AUC in DBS vs plasma (mean ratio, blood to plasma ratio) ([2]; capillary DBS vs venous plasma): higher in DBS

CC(C(=O)O)c1ccc(-c2ccccc2)c(F)c1 (centres unmarked) [Flurbiprofen, flurbiprofen]
blood plasma ratio [2]: ~0.6

Cc1ncc2n1-c1ccc(Cl)cc1C(c1ccccc1F)=NC2 [Midazolam, midazolam]
blood plasma ratio [2]: ~0.6

CC(NC(C)(C)CO)C(=O)c1cccc(Cl)c1 (centres unmarked) [OH-bup, 4′-hydroxybupropion]
maximal plasma concentrations [3]: 0.52 µmol/L | maximal estimated liver concentrations [1, 5]: 1.13 µmol/L | maximal estimated liver concentrations [1, 6]: 0.38 µmol/L | pKi (CYP2D6): 4.88

COc1ccc2[nH]c([S+]([O-])Cc3ncc(C)c(OC)c3C)nc2c1 (centres unmarked) [Omeprazole, omeprazole]
blood plasma ratio [2]: ~0.6

CC(NC(C)(C)C)C(O)c1cccc(Cl)c1 (centres unmarked) [erythrohydrobupropion]
maximal plasma concentrations [3]: 0.03 µmol/L | maximal estimated liver concentrations [1, 5]: 0.16 µmol/L | maximal estimated liver concentrations [1, 6]: 0.05 µmol/L | pKi (CYP2D6): 5.77

COCCCC/C(=N\OCCN)c1ccc(C(F)(F)F)cc1 [fluvoxamine]
effect on CYP1A2 activity (CYP1A2): potently inhibited | reported side effects [4]: four volunteers reported short-lasting troubled vision

CO[C@H]1/C=C/O[C@@]2(C)Oc3c(C)c(O)c4c(O)c(c(/C=N/N5CCN(C)CC5)c(O)c4c3C2=O)NC(=O)/C(C)=C\C=C\[C@H](C)[C@H](O)[C@@H](C)[C@@H](O)[C@@H](C)[C@H](OC(C)=O)[C@@H]1C [rifampicin]
effect on CYP1A2 activity (CYP1A2): slightly, but not significantly, increased | extent of CYP2C19 induction (CYP2C19): 4.2 fold and 2.6 fold

C[C@H](NC(C)(C)C)[C@@H](O)c1cccc(Cl)c1 [threohydrobupropion]
maximal plasma concentrations [3]: 0.24 µmol/L | maximal estimated liver concentrations [1, 5]: 1.31 µmol/L | maximal estimated liver concentrations [1, 6]: 0.44 µmol/L | pKi (CYP2D6): 5.27

C[C@@H](c1ncncc1F)[C@](O)(Cn1cncn1)c1ccc(F)cc1F [voriconazole]
reported side effects [4]: four volunteers reported short-lasting troubled vision | effect on CYP3A activity (CYP3A): significantly inhibited
